The nature of this experiment: The assay uses purified baculovirus-expressed GST-VEGFR2 interacting with biotinylated peptide substrates. HTRF is based on the proximity of europium cryptate (donor fluorophore)-labeled antiphosphotyrosine and streptavidin labeled with APC (allophycocyanin), which have been brought together by a binding reaction. The following applies: pH 7.5. (In general: Time-resolved FRET reads energy transfer from a long-lived donor to a nearby acceptor.)
As for `CN(c1ccc2cn(C)nc2c1)c1ccnc(Nc2cccc(S(N)(=O)=O)c2)n1` [3-({4-[methyl(2-methyl-2H-indazol-6-yl)amino]pyrimidin-2-yl}amino)benzene-1-sulfonamide], the concentration for half-maximal inhibition (IC50) was determined as 7.6 nM.

Turning to `Cc1nc2ccc(N(C)c3ccnc(Nc4cccc(S(N)(=O)=O)c4)n3)cc2n1C` [3-({4-[(1,2-dimethyl-1H-1,3-benzodiazol-6-yl)(methyl)amino]pyrimidin-2-yl}amino)benzene-1-sulfonamide], the IC50 amounted to 63 nM. For `Cc1c2ccc(N(C)c3ccnc(Nc4cccc(S(N)(=O)=O)c4)n3)cc2nn1Cc1ccccc1` [3-({4-[(2-benzyl-3-methyl-2H-indazol-6-yl)(methyl)amino]pyrimidin-2-yl}amino)benzene-1-sulfonamide] the value was 2.6 nM.

As for `Cc1c2ccc(N(C)c3ccnc(Nc4cccc(S(N)(=O)=O)c4)n3)cc2nn1C` [3-({4-[(2,3-dimethyl-2H-indazol-6-yl)(methyl)amino]pyrimidin-2-yl}amino)benzene-1-sulfonamide], the IC50 stood at 5.6 nM. To `Cc1n[nH]c2cc(N(C)c3ccnc(Nc4cccc(S(N)(=O)=O)c4)n3)ccc12` [3-({4-[methyl(3-methyl-1H-indazol-6-yl)amino]pyrimidin-2-yl}amino)benzene-1-sulfonamide] belongs 0.6 nM; to `Cc1nc2cc(N(C)c3ccnc(Nc4cccc(S(N)(=O)=O)c4)n3)ccc2n1C` [3-({4-[(1,2-dimethyl-1H-1,3-benzodiazol-5-yl)(methyl)amino]pyrimidin-2-yl}amino)benzene-1-sulfonamide], 17 nM; to `Cc1nn(C)c2cc(N(C)c3ccnc(Nc4cccc(S(N)(=O)=O)c4)n3)ccc12` [3-({4-[(1,3-dimethyl-1H-indazol-6-yl)(methyl)amino]pyrimidin-2-yl}amino)benzene-1-sulfonamide], 36 nM.

As usually defined, the IC50 is the midpoint of a concentration-inhibition curve. A lower IC50 goes with greater potency in that assay.

The values above are taken from BindingDB's records for doi:10.1021/jm800566m (Gsk, 2008).
